Results from PMC7778606, “Development of the phenylpyrazolo[3,4-d]pyrimidine-based, insulin-like growth factor receptor/Src/AXL-targeting small molecule kinase inhibitor” (Theranostics, 2021).
Where two headings read alike, the source gives them in different places.

Assays:
H226B cells = assay: MTT assay, viability of H226B cells; format: cell-based; settings: Homo sapiens, 72 h, three days, read-out: IC50 against the viability
Procedure: (§1) Cells were seeded into 96-well plates at a density of 1-2 × 10^3 cells/well and incubated for 24 h. Cells were treated with vehicle or various concentrations of test compounds for two (PC9 and PC9/ER cells) or three (other cells) days. Cells were further incubated with MTT solution (final concentration of 500 μg/mL) for 4 h at 37 °C. The formazan products were dissolved in dimethyl sulfoxide (DMSO), and the absorbance was measured at 570 nm. The data are presented as a percentage of the control group.

H226Br cells = assay: MTT assay, viability of H226Br cells; format: cell-based; settings: Homo sapiens, 72 h, three days, read-out: IC50 against the viability
Procedure: as §1

H1944 cells = assay: MTT assay, viability of H1944 cells; format: cell-based; settings: Homo sapiens, NCI-H1944, 72 h, three days, read-out: IC50 against the viability
Procedure: as §1

NSCLC cells [1] = assay: Anchorage-dependent colony formation assay; format: cell-based, human; settings: subset of NSCLC cells
Procedure: Cells were seeded into 6-well plates at a density of 300 cells/well and treated with LL6. The drug-containing medium was changed once or twice a week. After incubation for 10-14 days, colonies were fixed with 100% methanol, stained with 0.002% crystal violet solution, and washed with deionized water several times. The colonies were imaged and manually counted.

A549 cells = assay: MTT assay, viability of A549 cells; format: cell-based; settings: Homo sapiens
Procedure: as §1

H460/PmR cells = assay: MTT assay, viability of pemetrexed-resistant H460/PmR cells; format: cell-based; settings: Homo sapiens, NCI-H460, 72 h, three days, read-out: IC50 against the viability
Source text: (§2) Human lung cancer cell lines (A549, H1299, H1993, H1944, H226B, H226Br, H460, H522, HCC15, and PC9), a diploid human lung fibroblast cell line (Wi38), and the Lewis lung carcinoma (LLC) cell line were purchased from the American Type Culture Collection (ATCC, Manassas, VA, USA) or kindly provided by Dr. John V. Heymach (MD Anderson Cancer Center, Houston, TX, USA). Human retinal pigment epithelial (RPE) cells were kindly provided by Dr. Jeong Hun Kim (College of Medicine, Seoul National University, Seoul, Republic of Korea). HT-22 cells were provided by Dr. Dong Gyu Jo (College of Pharmacy, Sungkyunkwan University, Suwon, Republic of Korea). Lung cancer cells were cultured in RPMI 1640 medium supplemented with 10% fetal bovine serum (FBS) and antibiotics (Welgene, Gyeongsan-si, Republic of Korea). LLC, HT-22, and Wi38 cells were maintained in DMEM supplemented with 10% FBS and antibiotics. RPE cells were maintained in DMEM/F12 supplemented with 10% FBS and antibiotics. […]
(§3) Cells were seeded into 96-well plates at a density of 1-2 × 10^3 cells/well and incubated for 24 h. […] The formazan products were dissolved in dimethyl sulfoxide (DMSO), and the absorbance was measured at 570 nm. […]

Water solubility = format: physicochemical
PC9 cells = assay: MTT assay, viability of PC9 cells; format: cell-based; settings: Homo sapiens, PC-9, 48 h, two days, 5% FBS, read-out: IC50 against the viability
Procedure: as §1

PC9/ER cells = assay: MTT assay, viability of erlotinib-resistant PC9/ER cells; format: cell-based; settings: Homo sapiens, PC-9/ER, 48 h, two days, 5% FBS, read-out: IC50 against the viability
Source text: as §2, §3

H522 cells = assay: MTT assay, viability of H522 cells; format: cell-based; settings: Homo sapiens, NCI-H522, 72 h, three days, read-out: IC50 against the viability
Procedure: as §1

AURKA = target: T1, AURKA (Homo sapiens, UniProt O14965); assay: KINOMEscan competition binding assay; settings: LL6 at 10 μM; read-out: Percent Control
T1 construct: purchased DiscoverX KINOMEscan
T1 sequence (O14965 whole entry): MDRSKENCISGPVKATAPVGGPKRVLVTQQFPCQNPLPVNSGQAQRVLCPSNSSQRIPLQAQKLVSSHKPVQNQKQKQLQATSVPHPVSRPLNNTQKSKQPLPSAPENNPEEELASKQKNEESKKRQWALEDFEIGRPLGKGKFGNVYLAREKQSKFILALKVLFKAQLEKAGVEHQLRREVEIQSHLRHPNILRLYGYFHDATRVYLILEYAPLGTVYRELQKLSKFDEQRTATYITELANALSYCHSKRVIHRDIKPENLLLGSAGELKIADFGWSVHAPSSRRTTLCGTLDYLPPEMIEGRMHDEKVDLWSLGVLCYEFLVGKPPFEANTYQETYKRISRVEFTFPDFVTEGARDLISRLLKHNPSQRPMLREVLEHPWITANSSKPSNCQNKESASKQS
Procedure: […] To briefly summarize, Kd was measured by a competition binding assay that quantitatively measures the ability of a compound to compete with an immobilized ligand. […] […] See more details in the cited references [39]-[42] and see also at www.discoverx.com.

H1299/PmR cells = assay: MTT assay, viability of pemetrexed-resistant H1299/PmR cells; format: cell-based; settings: Homo sapiens, NCI-H1299, 72 h, three days, read-out: IC50 against the viability
Source text: as §2, §3

NSCLC cells [2] = assay: Anchorage-independent (soft agar) colony formation assay; format: cell-based, human; settings: subset of NSCLC cells
Procedure: Cells (2-3 × 10^3 cells/well) were mixed with sterile 1% agar solution (final concentration of 0.4%) and poured onto 1% base agar in 24-well plates. After solidification of the top agar, LL6 was diluted in complete medium and added to the agar. Cells embedded in the top agar were incubated for 10-14 days at 37 °C with 5% CO2. The LL6-containing medium was changed twice a week. After incubation, the colonies were stained with MTT solution, imaged, and counted using ImageJ software (National Institutes of Health, Bethesda, […], USA).

HCC15 cells = assay: MTT assay, viability of HCC15 cells; format: cell-based; settings: Homo sapiens, 72 h, three days, read-out: IC50 against the viability
Procedure: as §1

- IC50 (H226B cells): 1.37 µM
- IC50 (H226Br cells): 4.32 µM
- IC50 (H1944 cells): 1.02 µM
- IC50 (A549 cells; 72 h, A549, MTT assay, three days, read-out: IC50 against the viability (Table S4)): 6.63 µM
- IC50 (A549 cells; A549, MTT assay, read-out: IC50 against the viability of A549 cells (Table S2)): 2.59 µM
- IC50 (H460/PmR cells): 3.64 µM
- water solubility (Water solubility): poor
- IC50 (PC9 cells): > 10 µM
- IC50 (PC9/ER cells): 8.61 µM
- IC50 (H522 cells): 3.55 µM
- remaining binding at 10 µM (AURKA): 48%
- IC50 (H1299/PmR cells): 1.62 µM
- IC50 (HCC15 cells): 3.73 µM
Compound: Nc1ncnc2c1c(-c1ccc(Cl)cc1)nn2CCn1cc(COc2ccc(Nc3nccc(Nc4cnc5ccccc5c4)n3)cc2)nn1 [LL6]
- colony formation, anchorage-dependent (NSCLC cells [1]): significantly suppressed
- activity at 10 µM (A549 cells; 72 h, A549, MTT assay, 10 μM, read-out: % cells growth at 10 μM): 6.4%
- colony formation, anchorage-independent (NSCLC cells [2]): significantly suppressed
